Structures can show the parent of a compound that is named as a salt.
Columns and labels:
[1] = target: Human norepinephrine transporter (NET) (Homo sapiens, UniProt P23975); assay: Binding assay to human norepinephrine transporter (NET), [3H]-Nisoxetin; conditions: human NET enriched membranes, 5 nM [3H]-Nisoxetin; read-out: Ki (nM) NET Hum
How it was run: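 NET-enriched membranes (5 μg) incubated with 5 nM [3H]-nisoxetin in 50 mM Tris-HCl, 120 mM NaCl, 5 mM KCl, pH 7.4, for 60 min at 4 °C. Separation by filtration on PEI-soaked GF/C, then scintillation counting.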

[2] = target: Human α2δ-1 subunit of Cav2.2 calcium channel (Homo sapiens, UniProt P54289); assay: Binding assay to human α2δ-1 subunit of Cav2.2 calcium channel, [3H]-Gabapentin; conditions: human α2δ-1 enriched membranes, 15 nM [3H]-Gabapentin; read-out: Ki (nM) alpha2delta Hum
Chain of Human α2δ-1 subunit of Cav2.2 calcium channel (P54289 25-1103): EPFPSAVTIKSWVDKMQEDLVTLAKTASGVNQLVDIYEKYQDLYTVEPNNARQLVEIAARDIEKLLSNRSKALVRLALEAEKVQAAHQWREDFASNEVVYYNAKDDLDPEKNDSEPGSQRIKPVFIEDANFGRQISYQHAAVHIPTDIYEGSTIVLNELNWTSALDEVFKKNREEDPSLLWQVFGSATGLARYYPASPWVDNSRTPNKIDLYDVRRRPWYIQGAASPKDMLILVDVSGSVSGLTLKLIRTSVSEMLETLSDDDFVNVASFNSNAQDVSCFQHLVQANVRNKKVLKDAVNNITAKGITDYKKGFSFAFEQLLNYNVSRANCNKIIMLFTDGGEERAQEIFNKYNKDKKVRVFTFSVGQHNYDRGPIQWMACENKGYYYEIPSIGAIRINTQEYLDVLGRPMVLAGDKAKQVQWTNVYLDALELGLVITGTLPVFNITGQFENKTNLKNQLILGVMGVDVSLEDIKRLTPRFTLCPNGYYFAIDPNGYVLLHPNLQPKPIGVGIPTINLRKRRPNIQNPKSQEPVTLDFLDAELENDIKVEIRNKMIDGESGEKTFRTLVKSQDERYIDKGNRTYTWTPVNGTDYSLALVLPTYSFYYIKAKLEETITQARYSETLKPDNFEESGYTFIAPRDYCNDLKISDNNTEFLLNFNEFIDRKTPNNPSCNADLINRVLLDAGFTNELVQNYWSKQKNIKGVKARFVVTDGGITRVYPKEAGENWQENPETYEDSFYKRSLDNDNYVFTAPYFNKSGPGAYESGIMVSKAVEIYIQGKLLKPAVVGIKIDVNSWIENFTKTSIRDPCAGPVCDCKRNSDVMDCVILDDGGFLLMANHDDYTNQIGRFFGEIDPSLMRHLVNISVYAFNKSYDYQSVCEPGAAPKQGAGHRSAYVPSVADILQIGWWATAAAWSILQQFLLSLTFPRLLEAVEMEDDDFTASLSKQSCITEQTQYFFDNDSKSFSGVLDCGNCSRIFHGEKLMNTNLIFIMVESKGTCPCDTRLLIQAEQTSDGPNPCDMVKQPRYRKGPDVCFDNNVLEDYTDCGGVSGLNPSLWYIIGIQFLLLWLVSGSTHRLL
How it was run: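 Human α2δ-1-enriched membranes incubated with 15 nM [3H]-gabapentin in 10 mM Hepes-KOH pH 7.4, 60 min at 27 °C; nonspecific binding defined with 10 μM pregabalin. Bound ligand separated by filtration on PEI-presoaked GF/C filters, washed with ice-cold 50 mM Tris-HCl pH 7.4, counted by scintillation.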

Chain of Human norepinephrine transporter (NET) (P23975 whole entry): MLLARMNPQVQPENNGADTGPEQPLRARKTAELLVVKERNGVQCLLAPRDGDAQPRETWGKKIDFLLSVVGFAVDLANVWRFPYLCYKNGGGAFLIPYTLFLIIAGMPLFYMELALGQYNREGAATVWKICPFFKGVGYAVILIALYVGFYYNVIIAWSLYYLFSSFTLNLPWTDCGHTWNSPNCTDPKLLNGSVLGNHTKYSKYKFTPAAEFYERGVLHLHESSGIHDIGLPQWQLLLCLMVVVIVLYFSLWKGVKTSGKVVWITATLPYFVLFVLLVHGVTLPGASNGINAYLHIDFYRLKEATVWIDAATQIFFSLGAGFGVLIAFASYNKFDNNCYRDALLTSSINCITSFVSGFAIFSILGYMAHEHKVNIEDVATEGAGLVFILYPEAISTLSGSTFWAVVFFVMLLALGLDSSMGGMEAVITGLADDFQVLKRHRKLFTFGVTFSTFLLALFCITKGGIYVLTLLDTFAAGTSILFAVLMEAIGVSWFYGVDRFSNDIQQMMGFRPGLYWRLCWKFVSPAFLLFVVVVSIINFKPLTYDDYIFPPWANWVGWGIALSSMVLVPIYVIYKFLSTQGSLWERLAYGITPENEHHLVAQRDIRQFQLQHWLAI

| SMILES | Ki [1] | Ki [2] |
| --- | --- | --- |
| CNCCC(c1cccs1)N1CC(C)(C)c2ccc(C#N)cc21 (stereo not drawn) [Example 92, 3,3-Dimethyl-1-(3-(methylamino)-1-(thiophen-2-yl)propyl)indoline-6-carbonitrile] | > 1000 nM | 100 to 500 nM |
| CNCCC(c1cccs1)N1CCc2ccc(C#N)cc21 (stereo not drawn) [Example 94, 1-(3-(Methylamino)-1-(thiophen-2-yl)propyl)indoline-6-carbonitrile] | > 1000 nM | 100 to 500 nM |
| CNCCC(c1cccs1)N1CC(C)(C)c2ncc(C#N)cc21 (stereo not drawn) [Example 97, 3,3-Dimethyl-1-(3-(methylamino)-1-(thiophen-2-yl)propyl)-2,3-dihydro-1H-pyrrolo[3,2-b]pyridine-6-carbonitrile] | > 1000 nM | < 100 nM |
| CNCCC(c1cccs1)N1CC(C)(C)c2c(C#N)cccc21 (stereo not drawn) [Example 100, 3,3-Dimethyl-1-(3-(methylamino)-1-(thiophen-2-yl)propyl)indoline-4-carbonitrile] | > 1000 nM | < 100 nM |
| CNCC[C@@H](c1ccsc1)N1CCc2ncc(C)cc21 [Example 102, (S)—N-methyl-3-(6-methyl-2,3-dihydro-1H-pyrrolo[3,2-b]pyridin-1-yl)-3-(thiophen-3-yl)propan-1-amine] | > 1000 nM | 500 to 3000 nM |
| CNCC[C@H](c1ccsc1)N1CCc2ncc(C)cc21 [Example 103, (R)—N-methyl-3-(6-methyl-2,3-dihydro-1H-pyrrolo[3,2-b]pyridin-1-yl)-3-(thiophen-3-yl)propan-1-amine] | > 1000 nM | 100 to 500 nM |
| CNCCC(c1ccsc1)N1CC(C)(C)c2nc(C#N)ccc21 (stereo not drawn) [Example 104, 3,3-Dimethyl-1-(3-(methylamino)-1-(thiophen-3-yl)propyl)-2,3-dihydro-1H-pyrrolo[3,2-b]pyridine-5-carbonitrile Hydrochloride] | > 1000 nM | 100 to 500 nM |
| CNCC[C@@H](c1cccs1)N1CC(C)(C)c2ncc(F)cc21 [Example 105, (S)-3-(6-Fluoro-3,3-dimethyl-2,3-dihydro-1H-pyrrolo[3,2-b]pyridin-1-yl)-N-methyl-3-(thiophen-2-yl)propan-1-amine] | > 1000 nM | 500 to 3000 nM |
| CNCC[C@H](c1cccs1)N1CC(C)(C)c2ncc(F)cc21 [Example 106, (R)-3-(6-fluoro-3,3-dimethyl-2,3-dihydro-1H-pyrrolo[3,2-b]pyridin-1-yl)-N-methyl-3-(thiophen-2-yl)propan-1-amine] | > 1000 nM | < 100 nM |
| CNCC[C@H](c1ccsc1)N1CC(C)(C)c2nc(C(F)(F)F)ccc21 [Example 108, (R)-3-(3,3-dimethyl-5-(trifluoromethyl)-2,3-dihydro-1H-pyrrolo[3,2-b]pyridin-1-yl)-N-methyl-3-(thiophen-3-yl)propan-1-amine] | > 1000 nM | 100 to 500 nM |
| CNCC[C@@H](c1cccs1)N1CC(C)(C)c2ncc(Cl)cc21 [Example 109, (S)-3-(6-Chloro-3,3-dimethyl-2,3-dihydro-1H-pyrrolo[3,2-b]pyridin-1-yl)-N-methyl-3-(thiophen-2-yl)propan-1-amine] | > 1000 nM | ≥ 3000 nM |
| CNCC[C@H](c1cccs1)N1CC(C)(C)c2ncc(Cl)cc21 [Example 110, (R)-3-(6-chloro-3,3-dimethyl-2,3-dihydro-1H-pyrrolo[3,2-b]pyridin-1-yl)-N-methyl-3-(thiophen-2-yl)propan-1-amine] | > 1000 nM | 100 to 500 nM |
| CNCC[C@@H](c1cccs1)N1CCc2c(C#N)cccc21 [Example 112, (S)-1-(3-(methylamino)-1-(thiophen-2-yl)propyl)indoline-4-carbonitrile] | > 1000 nM | 100 to 500 nM |
| CNCC[C@H](c1cccs1)N1CC(C)(C)c2nc(OC)ccc21 [Example 114, (R)-3-(5-methoxy-3,3-dimethyl-2,3-dihydro-1H-pyrrolo[3,2-b]pyridin-1-yl)-N-methyl-3-(thiophen-2-yl)propan-1-amine] | > 1000 nM | 100 to 500 nM |
| CNCC[C@H](c1cccs1)N1c2ccccc2C[C@@H]1C [Example 118, (R)—N-methyl-3-((S)-2-methylindolin-1-yl)-3-(thiophen-2-yl)propan-1-amine] | > 1000 nM | ≥ 3000 nM |

Next, values leading:

| Ki [1] | Ki [2] | SMILES |
| --- | --- | --- |
| > 1000 nM | 500 to 3000 nM | CCNCC[C@H](c1ccsc1)N1CCc2ncc(F)cc21 [Example 91, (R)-N-ethyl-3-(6-fluoro-2,3-dihydro-1H-pyrrolo[3,2-b]pyridin-1-yl)-3-(thiophen-3-yl)propan-1-amine] |
| < 100 nM | 500 to 3000 nM | CNCCC(c1cccs1)N1CC(C)(C)c2ccccc21 (stereo not drawn) [Example 93, 3-(3,3-Dimethylindolin-1-yl)-N-methyl-3-(thiophen-2-yl)propan-1-amine] |
| < 100 nM | 100 to 500 nM | CNCCC(c1cccs1)N1CCc2c(C#N)cccc21 (stereo not drawn) [Example 95, 1-(3-(Methylamino)-1-(thiophen-2-yl)propyl)indoline-4-carbonitrile] |
| 500 to 1000 nM | 500 to 3000 nM | CNCCC(c1cccs1)N1CCc2cc(C#N)ccc21 (stereo not drawn) [Example 96, 1-(3-(Methylamino)-1-(thiophen-2-yl)propyl)indoline-5-carbonitrile] |
| 100 to 500 nM | 100 to 500 nM | CNCCC(c1cccs1)N1CC(C)(C)c2nc(OC)ccc21 (stereo not drawn) [Example 99, 3-(5-Methoxy-3,3-dimethyl-2,3-dihydro-1H-pyrrolo[3,2-b]pyridin-1-yl)-N-methyl-3-(thiophen-2-yl)propan-1-amine] |
| 100 to 500 nM | 100 to 500 nM | CNCC[C@@H](c1ccsc1)N1CC(C)(C)c2nc(C(F)(F)F)ccc21 [Example 107, (S)-3-(3,3-Dimethyl-5-(trifluoromethyl)-2,3-dihydro-1H-pyrrolo[3,2-b]pyridin-1-yl)-N-methyl-3-(thiophen-3-yl)propan-1-amine] |
| < 100 nM | 500 to 3000 nM | CNCC[C@@H](c1cccs1)N1CCc2c(C#N)cccc21 [Example 111, (S)-1-(3-(Methylamino)-1-(thiophen-2-yl)propyl)indoline-4-carbonitrile] |
| 500 to 1000 nM | 500 to 3000 nM | CNCC[C@@H](c1cccs1)N1CC(C)(C)c2nc(OC)ccc21 [Example 113, (S)-3-(5-Methoxy-3,3-dimethyl-2,3-dihydro-1H-pyrrolo[3,2-b]pyridin-1-yl)-N-methyl-3-(thiophen-2-yl)propan-1-amine] |
| < 100 nM | ≥ 3000 nM | CNCC[C@@H](c1cccs1)N1c2ccccc2C[C@H]1C [Example 117, (S)—N-methyl-3-((R)-2-methylindolin-1-yl)-3-(thiophen-2-yl)propan-1-amine] |
